For 17 compounds, EC50 results are on record in article PMC10786919, “Design-rules for stapled peptides with in vivo activity and their application to Mdm2/X antagonists” (Nature Communications, 2024).

The structures appear in SMILES notation. Read-outs that look alike come from different tables or passages of the source. Positions of bridges follow the written chain, without caps; N, C: chain ends. Non-standard residues stand in square brackets, D forms with d. Residues, ends and D or L forms follow the SMILES beside them. R8 = C=CCCCCCC[C@@](C)(N)C(=O)O; Cha = N[C@@H](CC1CCCCC1)C(=O)O; R5 = C=CCCC[C@@](C)(N)C(=O)O; S5 = C=CCCC[C@](C)(N)C(=O)O; Ahx = NCCCCCC(=O)O

The subject of the assay is p53 responsive β-lactamase reporter in HCT116 cells. Nature of the assay: cells. Conditions: 0% FBS 4Hr. It is filed as cell-based. The procedure:
HCT116 cells were stably transfected with a p53 responsive β-lactamase reporter and expanded in McCoy’s 5 A Medium with 10% fetal bovine serum (FBS), Blasticidin, and Penicillin/Streptomycin and then transferred to 1.5 ml freezing vials and stored under liquid nitrogen in growth media containing 5% DMSO. […] The cells were then seeded into a 384-well plate at a density of 8000 cells per well. […] The final working concentration of DMSO was 0.5%. β-lactamase activity was detected using the ToxBLAzer Dual Screen (Invitrogen), as per the manufacturer’s instructions. Measurements were made using the Envision multiplate reader (Perkin–Elmer). […] Measurements were taken a minimum of three times (biological replicates) and values are reported as geometric means of the replicates.

Where [1] appears, read: read-out: p53 reporter assay EC50.
Setting [2] is: read-out: p53 reporter assay: EC50.

`CC(=O)N[C@@H](CCCCN)C(=O)NCCCCCC(=O)N[C@H](C(=O)N[C@@H](CO)C(=O)N[C@@H](Cc1ccccc1)C(=O)N[C@]1(C)CCCCCCCCCCC[C@@](C)(C(=O)N[C@@H](CCC(=O)O)C(=O)N[C@@H](CC(N)=O)C(=O)N[C@@H](Cc2ccccc2)C(N)=O)NC(=O)[C@H](CC(C)C)NC(=O)[C@H](CC(C)C)NC(=O)[C@H](C)NC(=O)[C@H](Cc2c[nH]c3ccccc23)NC(=O)[C@H](Cc2ccc(O)cc2)NC(=O)[C@H](CCC(=O)O)NC1=O)[C@@H](C)O` [MP-049]: the EC50 (as a rule, the midpoint of the concentration-response curve) under setting [1] was determined as 8.74 µM.

In the case of `CC(=O)N[C@@H](CCCCN)C(=O)N[C@@H](CCCCN)C(=O)N[C@@H](CO)C(=O)NCC(=O)N[C@@H](CO)C(=O)NCC(=O)N[C@H](C(=O)N[C@@H](CO)C(=O)N[C@@H](Cc1ccccc1)C(=O)N[C@]1(C)CCCCCCC=CCCC[C@@](C)(C(=O)N[C@@H](CCC(=O)O)C(=O)N[C@@H](CC(N)=O)C(=O)N[C@@H](Cc2ccccc2)C(N)=O)NC(=O)[C@H](CC(C)C)NC(=O)[C@H](CC(C)C)NC(=O)[C@H](C)NC(=O)[C@H](Cc2c[nH]c3ccccc23)NC(=O)[C@H](Cc2ccc(O)cc2)NC(=O)[C@H](CCC(=O)O)NC1=O)[C@@H](C)O` [MP-052] (Ac-KKSGSGTSF[R8]EYWALL[S5]ENF-NH2; staple 10-17), under setting [1], the EC50 was determined as 12.9 µM.

As to `CC(=O)N[C@H](C(=O)N[C@@H](CO)C(=O)N[C@@H](Cc1ccccc1)C(=O)N[C@]1(C)CCCCCCC=CCCC[C@@](C)(C(N)=O)NC(=O)[C@H](CC2CCCCC2)NC(=O)[C@H](CC(C)C)NC(=O)[C@H](C)NC(=O)[C@H](Cc2c[nH]c3ccccc23)NC(=O)[C@H](Cc2ccc(O)cc2)NC(=O)[C@H](CCC(=O)O)NC1=O)[C@@H](C)O` [MP-064] (Ac-TSF[R8]EYWAL[Cha][S5]-NH2; staple 4-11), under setting [1], the concentration for a half-maximal effect (EC50) is 0.89 µM.

In the case of `CC(=O)N[C@H](C(=O)N[C@@H](CO)C(=O)N[C@@H](C)C(=O)N[C@]1(C)CCCCCCC=CCCC[C@@](C)(C(N)=O)NC(=O)[C@H](CC(C)C)NC(=O)[C@H](CC(C)C)NC(=O)[C@H](C)NC(=O)[C@H](Cc2c[nH]c3ccccc23)NC(=O)[C@H](Cc2ccc(O)cc2)NC(=O)[C@H](CCC(=O)O)NC1=O)[C@@H](C)O` [MP-067] (Ac-TSA[R8]EYWALL[S5]-NH2; staple 4-11), the EC50 under setting [1] was over 50 µM.

For the compound `CC(=O)N[C@@H](CCCCN)C(=O)NCCCCCC(=O)N[C@H](C(=O)N[C@@H](CO)C(=O)N[C@@H](C)C(=O)N[C@]1(C)CCCCCCC=CCCC[C@@](C)(C(=O)N[C@@H](CCC(=O)O)C(=O)N[C@@H](CC(N)=O)C(=O)N[C@@H](Cc2ccccc2)C(N)=O)NC(=O)[C@H](CC(C)C)NC(=O)[C@H](CC(C)C)NC(=O)[C@H](C)NC(=O)[C@H](Cc2c[nH]c3ccccc23)NC(=O)[C@H](Cc2ccc(O)cc2)NC(=O)[C@H](CCC(=O)O)NC1=O)[C@@H](C)O` [MP-068] (Ac-K[Ahx]TSA[R8]EYWALL[S5]ENF-NH2; staple 6-13), under setting [1], the EC50 was over 50 µM.

For `CC(=O)N[C@@H](CCCCN)C(=O)N[C@@H](CCCCN)C(=O)NCCCCCC(=O)N[C@H](C(=O)N[C@@H](CO)C(=O)N[C@@H](C)C(=O)N[C@]1(C)CCCCCCC=CCCC[C@@](C)(C(=O)N[C@@H](CCC(=O)O)C(=O)N[C@@H](CC(N)=O)C(=O)N[C@@H](Cc2ccccc2)C(N)=O)NC(=O)[C@H](CC(C)C)NC(=O)[C@H](CC(C)C)NC(=O)[C@H](C)NC(=O)[C@H](Cc2c[nH]c3ccccc23)NC(=O)[C@H](Cc2ccc(O)cc2)NC(=O)[C@H](CCC(=O)O)NC1=O)[C@@H](C)O` [MP-069] (Ac-KK[Ahx]TSA[R8]EYWALL[S5]ENF-NH2; staple 7-14), the EC50 under setting [1] was over 50 µM.

Take `CC(=O)N[C@@H](CCCCN)C(=O)N[C@@H](CCCCN)C(=O)N[C@@H](CCCCN)C(=O)NCCCCCC(=O)N[C@H](C(=O)N[C@@H](CO)C(=O)N[C@@H](C)C(=O)N[C@]1(C)CCCCCCC=CCCC[C@@](C)(C(=O)N[C@@H](CCC(=O)O)C(=O)N[C@@H](CC(N)=O)C(=O)N[C@@H](Cc2ccccc2)C(N)=O)NC(=O)[C@H](CC(C)C)NC(=O)[C@H](CC(C)C)NC(=O)[C@H](C)NC(=O)[C@H](Cc2c[nH]c3ccccc23)NC(=O)[C@H](Cc2ccc(O)cc2)NC(=O)[C@H](CCC(=O)O)NC1=O)[C@@H](C)O` [MP-070] (Ac-KKK[Ahx]TSA[R8]EYWALL[S5]ENF-NH2; staple 8-15): the EC50 under setting [1] was over 50 µM.

Consider `CC(=O)N[C@@H](CCCCN)C(=O)N[C@@H](CCCCN)C(=O)N[C@@H](CCCCN)C(=O)NCCCCCC(=O)N[C@H](C(=O)N[C@@H](CO)C(=O)N[C@@H](CC(C)C)C(=O)N[C@]1(C)CCCCCCC=CCCC[C@@](C)(C(=O)N[C@@H](CCC(=O)O)C(=O)N[C@@H](CC(N)=O)C(=O)N[C@@H](Cc2ccccc2)C(N)=O)NC(=O)[C@H](Cc2c[nH]c3ccccc23)NC(=O)[C@H](CC(C)C)NC(=O)[C@H](C)NC(=O)[C@H](Cc2ccccc2)NC(=O)[C@H](Cc2ccc(O)cc2)NC(=O)[C@H](CCC(=O)O)NC1=O)[C@@H](C)O` [MP-075] (Ac-KKK[Ahx]TSL[R8]EYFALW[S5]ENF-NH2; staple 8-15), for which the half-maximal effective concentration (EC50) under setting [2] was over 50 µM.

On to `CC(=O)N[C@H](C(=O)N[C@@H](CO)C(=O)N[C@@H](Cc1ccccc1)C(=O)N[C@]1(C)CCCC=CCCC[C@](C)(C(=O)N[C@@H](CC(C)C)C(=O)N[C@@H](CC(C)C)C(=O)N2CCC[C@H]2C(=O)N[C@@H](CCC(=O)O)C(=O)N[C@@H](CC(N)=O)C(=O)N[C@@H](Cc2ccccc2)C(N)=O)NC(=O)[C@H](Cc2c[nH]c3ccccc23)NC(=O)[C@H](Cc2ccc(O)cc2)NC(=O)[C@H](CCC(=O)O)NC1=O)[C@@H](C)O` [MP-078] (Ac-TSF[R5]EYW[R5]LLPENF-NH2; staple 4-8), for which the EC50 under setting [2] amounted to 37.7 µM.

As to `CC(=O)N[C@H](C(=O)N[C@@H](CO)C(=O)N[C@@H](Cc1ccccc1)C(=O)N[C@]1(C)CCCCCCC=CCCC[C@@](C)(C(=O)N[C@@H](CCC(=O)O)C(=O)N[C@@H](CC(N)=O)C(N)=O)NC(=O)[C@H](CC(C)C)NC(=O)[C@H](CC(C)C)NC(=O)[C@H](C)NC(=O)[C@H](Cc2c[nH]c3ccccc23)NC(=O)[C@H](Cc2ccc(O)cc2)NC(=O)[C@H](CCC(=O)O)NC1=O)[C@@H](C)O` [MP-086], the EC50 under setting [2] amounted to 17.4 µM.

For the compound `CC(=O)N[C@H](C(=O)N[C@@H](CO)C(=O)N[C@@H](Cc1ccccc1)C(=O)N[C@]1(C)CCCCCCC=CCCC[C@@](C)(C(=O)N[C@@H](CCC(=O)O)C(=O)N[C@@H](CC(N)=O)C(=O)N[C@@H](C)C(N)=O)NC(=O)[C@H](CC(C)C)NC(=O)[C@H](CC(C)C)NC(=O)[C@H](C)NC(=O)[C@H](Cc2c[nH]c3ccccc23)NC(=O)[C@H](Cc2ccc(O)cc2)NC(=O)[C@H](CCC(=O)O)NC1=O)[C@@H](C)O` [MP-088], the EC50 under setting [2] was determined as 22.3 µM.

For `CC(=O)N[C@H](C(=O)N[C@@H](CO)C(=O)N[C@@H](Cc1ccccc1)C(=O)N[C@]1(C)CCCCCCCCCCC[C@@](C)(C(N)=O)NC(=O)[C@H](CC(C)C)NC(=O)[C@H](CC(C)C)NC(=O)[C@H](C)NC(=O)[C@H](Cc2c[nH]c3ccccc23)NC(=O)[C@H](Cc2ccc(O)cc2)NC(=O)[C@H](CCC(=O)O)NC1=O)[C@@H](C)O` [MP-089], the EC50 under setting [2] was found to be 1.23 µM.

With `CC(=O)N[C@H](C(=O)N[C@@H](CO)C(=O)N[C@@H](Cc1ccccc1)C(=O)N[C@]1(C)CCCCCCC=CCCC[C@@](C)(C(=O)N[C@@H](CCC(=O)O)C(=O)N[C@@H](CC(N)=O)C(=O)N[C@H](Cc2ccccc2)C(N)=O)NC(=O)[C@H](CC(C)C)NC(=O)[C@H](CC(C)C)NC(=O)[C@H](C)NC(=O)[C@H](Cc2c[nH]c3ccccc23)NC(=O)[C@H](Cc2ccc(O)cc2)NC(=O)[C@H](CCC(=O)O)NC1=O)[C@@H](C)O` [MP-091], under setting [2], the EC50 is 5.28 µM.

For the compound `CC(=O)N[C@H](C(=O)N[C@@H](CO)C(=O)N[C@@H](Cc1ccccc1)C(=O)N[C@]1(C)CCCCCCC=CCCC[C@@](C)(C(=O)N[C@H](CCC(=O)O)C(=O)N[C@@H](CC(N)=O)C(=O)N[C@@H](Cc2ccccc2)C(N)=O)NC(=O)[C@H](CC(C)C)NC(=O)[C@H](CC(C)C)NC(=O)[C@H](C)NC(=O)[C@H](Cc2c[nH]c3ccccc23)NC(=O)[C@H](Cc2ccc(O)cc2)NC(=O)[C@H](CCC(=O)O)NC1=O)[C@@H](C)O` [MP-092], under setting [2], the EC50 was determined as 6.33 µM.

Take `CC(=O)N[C@@H](CCCCN)C(=O)N[C@@H](CCCCN)C(=O)NCCCCCC(=O)N[C@H](C(=O)N[C@@H](CO)C(=O)N[C@@H](Cc1ccccc1)C(=O)N[C@]1(C)CCCCCC/C=C\CCC[C@@](C)(C(=O)N[C@@H](CCC(=O)O)C(=O)N[C@@H](CC(N)=O)C(=O)N[C@@H](Cc2ccccc2)C(N)=O)NC(=O)[C@H](CC(C)C)NC(=O)[C@H](CC(C)C)NC(=O)[C@H](C)NC(=O)[C@H](Cc2c[nH]c3ccccc23)NC(=O)[C@H](Cc2ccc(O)cc2)NC(=O)[C@H](CCC(=O)O)NC1=O)[C@@H](C)O` [MP-095] (Ac-KK[Ahx]TSF[R8]EYWALL[S5]ENF-NH2; staple (Z) 7-14): under setting [2], the EC50 stood at 5.83 µM.

With `CC(=O)N[C@H](C(=O)N[C@@H](CO)C(=O)N[C@@H](Cc1ccccc1)C(=O)N[C@]1(C)CCCC=CCCC[C@](C)(C(=O)N[C@@H](CC(C)C)C(=O)N[C@@H](CC(C)C)C(=O)N2CCC[C@H]2C(=O)N[C@@H](CCC(=O)O)C(=O)N[C@@H](CC(N)=O)C(=O)N[C@@H](Cc2ccc(O)cc2)C(N)=O)NC(=O)[C@H](Cc2c[nH]c3ccccc23)NC(=O)[C@H](Cc2ccc(O)cc2)NC(=O)[C@H](CCC(=O)O)NC1=O)[C@@H](C)O` [MP-2082] (Ac-TSF[R5]EYW[R5]LLPENY-NH2; staple 4-8), the EC50 under setting [2] worked out at 43 µM.

Turning to `CC(=O)N[C@H](C(=O)N[C@@H](CO)C(=O)N[C@@H](Cc1ccccc1)C(=O)N[C@]1(C)CCCC=CCCC[C@](C)(C(=O)N[C@@H](CC(C)C)C(=O)N[C@@H](CC(C)C)C(=O)N[C@@H](CO)C(=O)N[C@@H](CCC(=O)O)C(=O)N[C@@H](CC(N)=O)C(N)=O)NC(=O)[C@H](Cc2c[nH]c3ccccc23)NC(=O)[C@H](Cc2ccc(O)cc2)NC(=O)[C@H](CCC(=O)O)NC1=O)[C@@H](C)O` [MP-2087] (Ac-TSF[R5]EYW[R5]LLSEN-NH2; staple 4-8), under setting [2], the EC50 came to 24.7 µM.
